The text below walks through data of US5370770A, “Method for deinking printed waste paper using soybean peroxidase” (priority 1992, dated 1994).

A short description of data set [1]: Half-wave redox potential of substrates. It counts as physicochemical. Particulars: redox potential of substrate.
For data set [2], the target named is T1, Horseradish Peroxidase (HRP) (Armoracia rusticana, UniProt P00433).
T1 sequence (P00433 31-353): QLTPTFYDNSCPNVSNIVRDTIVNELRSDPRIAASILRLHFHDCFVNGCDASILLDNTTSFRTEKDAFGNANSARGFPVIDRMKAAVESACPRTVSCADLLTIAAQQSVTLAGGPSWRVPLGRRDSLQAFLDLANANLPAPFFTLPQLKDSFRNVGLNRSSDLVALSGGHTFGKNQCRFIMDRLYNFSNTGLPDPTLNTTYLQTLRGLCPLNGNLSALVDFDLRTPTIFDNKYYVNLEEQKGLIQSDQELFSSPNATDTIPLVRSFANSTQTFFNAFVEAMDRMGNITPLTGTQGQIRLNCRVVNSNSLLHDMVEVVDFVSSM
Nature of the data set: Oxidation of methoxybenzene substrates by horseradish peroxidase (redox potential comparison). It counts as biochemical. Particulars: absorbance change at substrate λmax. From the text:
(§1) Any of a variety of peroxidases can be used in the present invention.
(§2) *all values in Δ Abs/(mg enzymemin).

A further data set concerns the target Soybean Peroxidase (SBP) (Glycine max, UniProt O22443). Nature of the data set: Oxidation of methoxybenzene substrates by soybean peroxidase (redox potential comparison). It counts as biochemical. Conditions: absorbance change at substrate λmax.
Excerpt: as §1, §2
**curve of ΔAbs/time slopes upward as reaction proceeds.

Sequence of Soybean Peroxidase (SBP) (O22443 27-332): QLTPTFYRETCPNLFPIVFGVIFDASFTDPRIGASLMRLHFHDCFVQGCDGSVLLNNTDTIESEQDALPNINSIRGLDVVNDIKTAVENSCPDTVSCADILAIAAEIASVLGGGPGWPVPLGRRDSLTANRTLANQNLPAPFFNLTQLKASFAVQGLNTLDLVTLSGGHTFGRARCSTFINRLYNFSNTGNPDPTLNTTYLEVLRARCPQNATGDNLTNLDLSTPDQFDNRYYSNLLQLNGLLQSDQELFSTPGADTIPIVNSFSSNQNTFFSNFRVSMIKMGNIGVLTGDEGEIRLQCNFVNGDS

On to `COc1cc(OC)c(OC)c(OC)c1` [1,2,3,5-tetramethoxybenzene], for which the “E1/2 (V)” value in data set [1] was 1.09 V. For the same molecule, the HRP in data set [2] is 0.30 Δ Abs/(mg enzymemin). Besides, the SBP at Soybean Peroxidase (SBP) is reported as 3.02 Δ Abs/(mg enzymemin).

Consider `COc1ccc(OC)c(OC)c1` [1,2,4-trimethoxybenzene], for which, in data set [1], the “E1/2 (V)” value turned out to be 1.12 V. Further, the HRP in data set [2] was 1.64 Δ Abs/(mg enzymemin). The SBP at Soybean Peroxidase (SBP) is given as 9.23 Δ Abs/(mg enzymemin).

For `COc1ccc(OC)cc1` [1,4-dimethoxybenzene], in data set [1], the “E1/2 (V)” value stood at 1.34 V. Moreover, the HRP in data set [2] is 0 Δ Abs/(mg enzymemin). In addition, at Soybean Peroxidase (SBP), the SBP is recorded as 0.072 Δ Abs/(mg enzymemin).

Consider `COc1c(OC)c(OC)c(OC)c(OC)c1OC` [hexamethoxybenzene], for which, in data set [1], the “E1/2 (V)” value came out at 1.24 V. The HRP in data set [2] is 0 Δ Abs/(mg enzymemin). Further, the SBP on Soybean Peroxidase (SBP) is 0.22 Δ Abs/(mg enzymemin).

Take `COc1cc(OC)c(OC)c(OC)c1OC` [pentamethoxybenzene]: the “E1/2 (V)” value in data set [1] was 1.07 V. Further, the HRP in data set [2] is recorded as 2.50 Δ Abs/(mg enzymemin). Also, the SBP on Soybean Peroxidase (SBP) is given as 8.76 Δ Abs/(mg enzymemin).
